Laboratory results reported in patent US20240067702A1, “LACTAM-MODIFIED P[…]” (DONGBAO PURPLE STAR (HANGZHOU) BIOPHARMACEUTICAL CO., LTD., priority 2020, published 2024).
*1 amine or outer side, *2 acyl side, *3 side chain or, on linkers, in order; H or OH if unused. Where a SMILES comes first, the peptide text is derived from it. Bridges are numbered along the chain shown (N, C = ends). Side-chain parts run from the residue outwards. [ ]: non-standard residue; d: D form. The star is where a group is joined. C20 diacid = O=C(O)CCCCCCCCCCCCCCCCCCC(=O)*; C18 diacid = O=C(O)CCCCCCCCCCCCCCCCC(=O)*; γGlu = O=C(O)[C@H](CCC(=O)[*:2])N[*:1]; AEEA = NCCOCCOCC(=O)O; Aib = CC(C)(N)C(=O)O

What was measured:
GLP-1R = target: T1, GLP-1R (Homo sapiens, UniProt P43220); experiment: GLP-1R agonist activity test in vitro (cAMP assay); assay type: cell-based; details: HEK293 host cell
T1 construct: host or cells: HEK293
Method: (§1) The cell strains were constructed by Shanghai WuXi AppTec.
(§2) The test compound was serially diluted 4-fold with 10 points. The initial concentration was 30 μM, and the dilution was completed with Bravo.
(§3) 1) 100 nL of the compound was transferred to OptiPlate-384 plate using Echo.
(§4) 7) The GLP-1R/GIPR cell concentration was diluted to 2.0*10^5/mL with the experimental buffer.
(§5) 8) […] of the diluted cell suspension was transferred into the OptiPlate-384 plate.
(§6) 9) The diluted cell suspension was incubated at room temperature for 30 minutes.
(§7) 2) 10 μL of cAMP detection reagent was added.
(§8) 3) The OptiPlate-384 plate was covered with TopSeal-A film and incubated at room temperature for 60 minutes.
(§9) TopSeal-A was removed and read in EnVision.

GIPR = target: T2, GIPR (Homo sapiens, UniProt P48546); experiment: GIPR agonist activity test in vitro (cAMP assay); assay type: cell-based; details: CHO host cell
T2 construct: host or cells: CHO
T2 sequence (P48546 22-466): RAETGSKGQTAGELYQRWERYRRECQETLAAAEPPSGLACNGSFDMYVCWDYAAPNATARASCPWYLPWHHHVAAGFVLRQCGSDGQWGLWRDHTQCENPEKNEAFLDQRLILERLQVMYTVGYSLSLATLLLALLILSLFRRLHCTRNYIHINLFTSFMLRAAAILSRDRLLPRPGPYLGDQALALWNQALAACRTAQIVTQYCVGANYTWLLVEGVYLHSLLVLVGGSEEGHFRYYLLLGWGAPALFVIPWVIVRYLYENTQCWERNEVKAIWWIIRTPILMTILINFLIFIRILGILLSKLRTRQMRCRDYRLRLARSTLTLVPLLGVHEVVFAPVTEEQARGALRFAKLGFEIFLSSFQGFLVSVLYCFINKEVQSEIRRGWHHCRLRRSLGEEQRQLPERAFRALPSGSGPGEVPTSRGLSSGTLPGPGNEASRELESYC
Method: as §1, §2, §3, §4, §5, §6, §7, §8, §9

[1] = GLP-IR Agonist Activity EC50 (−) 1% HSA, without 1% HSA
[2] = GIPR Agonist Activity EC50 (−) 1% HSA, without 1% HSA

T1 sequence (P43220 24-463): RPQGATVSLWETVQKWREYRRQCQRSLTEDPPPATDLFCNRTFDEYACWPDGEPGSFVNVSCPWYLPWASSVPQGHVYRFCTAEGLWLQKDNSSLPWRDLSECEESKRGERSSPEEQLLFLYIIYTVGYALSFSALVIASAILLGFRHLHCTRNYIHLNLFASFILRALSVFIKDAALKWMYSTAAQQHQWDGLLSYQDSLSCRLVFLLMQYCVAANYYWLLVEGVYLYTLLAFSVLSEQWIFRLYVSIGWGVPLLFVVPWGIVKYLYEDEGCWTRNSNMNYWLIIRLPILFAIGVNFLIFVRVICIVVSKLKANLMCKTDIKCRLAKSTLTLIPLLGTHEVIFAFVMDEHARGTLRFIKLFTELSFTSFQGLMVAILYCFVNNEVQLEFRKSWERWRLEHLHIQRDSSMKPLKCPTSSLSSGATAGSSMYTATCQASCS

## CC[C@H](C)[C@H](NC(=O)[C@@H]1CCCCNC(=O)CC[C@H](NC(=O)[C@@H](NC(=O)[C@H](CO)NC(=O)[C@H](Cc2ccc(O)cc2)NC(=O)[C@H](CC(=O)O)NC(=O)[C@H](CO)NC(=O)[C@@H](NC(=O)[C@H](Cc2ccccc2)NC(=O)[C@@H](NC(=O)CNC(=O)[C@H](CCC(=O)O)NC(=O)C(C)(C)NC(=O)[C@@H](N)Cc2ccc(O)cc2)[C@@H](C)O)[C@@H](C)O)[C@@H](C)CC)C(=O)N[C@@H](CC(C)C)C(=O)N[C@@H](CC(=O)O)C(=O)N1)C(=O)N[C@@H](C)C(=O)N[C@@H](CCC(N)=O)C(=O)N[C@@H](CCCCNC(=O)COCCOCCNC(=O)COCCOCCNC(=O)CC[C@H](NC(=O)CCCCCCCCCCCCCCCCCCC(=O)O)C(=O)O)C(=O)N[C@@H](C)C(=O)N[C@@H](Cc1ccccc1)C(=O)N[C@H](C(=O)N[C@@H](CCC(N)=O)C(=O)N[C@@H](Cc1c[nH]c2ccccc12)C(=O)N[C@@H](CC(C)C)C(=O)N[C@H](C(=O)N[C@@H](C)C(=O)NCC(=O)NCC(=O)N1CCC[C@H]1C(=O)N[C@@H](CO)C(=O)N[C@@H](CO)C(=O)NCC(=O)N[C@@H](C)C(=O)N1CCC[C@H]1C(=O)N1CCC[C@H]1C(=O)N1CCC[C@H]1C(=O)N[C@@H](CO)C(N)=O)[C@@H](C)CC)C(C)C [WX-010] (H-Y[Aib]EGTFTSDYSIELDKIAQK([AEEA-AEEA-γGlu-C20 diacid])AFVQWLIAGGPSSGAPPPS-NH2; lactam 13-16)
GLP-1R; GLP-IR Agonist Activity EC50 (+) 1% HSA, with 1% HSA
  EC50: 34 nM
GLP-1R; [1]
  EC50: 0.0345 nM
GIPR; GIPR Agonist Activity EC50 (+) 1% HSA, with 1% HSA
  EC50: 443 nM
GIPR; [2]
  EC50: 11.9 nM

## CC[C@H](C)[C@H](NC(=O)[C@H](CO)NC(=O)[C@H](Cc1ccc(O)cc1)NC(=O)[C@H](CC(=O)O)NC(=O)[C@H](CO)NC(=O)[C@@H](NC(=O)[C@H](Cc1ccccc1)NC(=O)[C@@H](NC(=O)CNC(=O)[C@H](CCC(=O)O)NC(=O)C(C)(C)NC(=O)[C@@H](N)Cc1ccc(O)cc1)[C@@H](C)O)[C@@H](C)O)C(=O)NC(C)(C)C(=O)N[C@@H](CC(C)C)C(=O)N[C@@H](CC(=O)O)C(=O)N[C@@H](CCCCN)C(=O)N[C@@H](CCCCNC(=O)COCCOCCNC(=O)COCCOCCNC(=O)CC[C@H](NC(=O)CCCCCCCCCCCCCCCCCCC(=O)O)C(=O)O)C(=O)N[C@@H](C)C(=O)N[C@@H](CCC(N)=O)C(=O)N[C@H]1CCCCNC(=O)CC[C@@H](C(=O)N[C@@H](Cc2c[nH]c3ccccc23)C(=O)N[C@@H](CC(C)C)C(=O)N[C@@H](CC(C)C)C(=O)N[C@@H](C)C(=O)NCC(=O)NCC(=O)N2CCC[C@H]2C(=O)N[C@@H](CO)C(=O)N[C@@H](CO)C(=O)NCC(=O)N[C@@H](C)C(=O)N2CCC[C@H]2C(=O)N2CCC[C@H]2C(=O)N2CCC[C@H]2C(=O)N[C@@H](CO)C(N)=O)NC(=O)[C@H](C(C)C)NC(=O)[C@H](Cc2ccccc2)NC(=O)[C@H](C)NC1=O [WX-007] (H-Y[Aib]EGTFTSDYSI[Aib]LDKK([AEEA-AEEA-γGlu-C20 diacid])AQKAFVEWLLAGGPSSGAPPPS-NH2; lactam 20-24)
GLP-1R; [1]
  EC50: 0.14 nM
GIPR; [2]
  EC50: 0.13 nM

## CC[C@H](C)[C@H](NC(=O)[C@H](CC(C)C)NC(=O)[C@H](Cc1c[nH]c2ccccc12)NC(=O)[C@H](CCCCNC(=O)COCCOCCNC(=O)COCCOCCNC(=O)CC[C@H](NC(=O)CCCCCCCCCCCCCCCCCCC(=O)O)C(=O)O)NC(=O)[C@@H](NC(=O)[C@H](Cc1ccccc1)NC(=O)[C@H](C)NC(=O)[C@@H]1CCCCNC(=O)CC[C@H](NC(=O)[C@H](CCCCN)NC(=O)[C@H](CC(=O)O)NC(=O)[C@H](CC(C)C)NC(=O)C(C)(C)NC(=O)[C@@H](NC(=O)[C@H](CO)NC(=O)[C@H](Cc2ccc(O)cc2)NC(=O)[C@H](CC(=O)O)NC(=O)[C@H](CO)NC(=O)[C@@H](NC(=O)[C@H](Cc2ccccc2)NC(=O)[C@@H](NC(=O)CNC(=O)[C@H](CCC(=O)O)NC(=O)C(C)(C)NC(=O)[C@@H](N)Cc2ccc(O)cc2)[C@@H](C)O)[C@@H](C)O)[C@@H](C)CC)C(=O)N[C@@H](C)C(=O)N[C@@H](CCC(N)=O)C(=O)N1)C(C)C)C(=O)N[C@@H](C)C(=O)NCC(=O)NCC(=O)N1CCC[C@H]1C(=O)N[C@@H](CO)C(=O)N[C@@H](CO)C(=O)NCC(=O)N[C@@H](C)C(=O)N1CCC[C@H]1C(=O)N1CCC[C@H]1C(=O)N1CCC[C@H]1C(=O)N[C@@H](CO)C(N)=O [WX-008] (H-Y[Aib]EGTFTSDYSI[Aib]LDKEAQKAFVK([AEEA-AEEA-γGlu-C20 diacid])WLIAGGPSSGAPPPS-NH2; lactam 17-20)
GLP-1R; [1]
  EC50: 0.08 nM
GIPR; [2]
  EC50: 0.32 nM

## CC[C@H](C)[C@H](NC(=O)[C@H](CC(C)C)NC(=O)[C@H](Cc1c[nH]c2ccccc12)NC(=O)[C@@H]1CCC(=O)NCCCC[C@H](NC(=O)[C@H](CCC(N)=O)NC(=O)[C@H](C)NC(=O)[C@H](CCCCNC(=O)COCCOCCNC(=O)COCCOCCNC(=O)CC[C@H](NC(=O)CC[C@H](NC(=O)CCCCCCCCCCCCCCCCC(=O)O)C(=O)O)C(=O)O)NC(=O)[C@H](CCCCN)NC(=O)[C@H](CC(=O)O)NC(=O)[C@H](CC(C)C)NC(=O)C(C)(C)NC(=O)[C@@H](NC(=O)[C@H](CO)NC(=O)[C@H](Cc2ccc(O)cc2)NC(=O)[C@H](CC(=O)O)NC(=O)[C@H](CO)NC(=O)[C@@H](NC(=O)[C@H](Cc2ccccc2)NC(=O)[C@@H](NC(=O)CNC(=O)[C@H](CCC(=O)O)NC(=O)C(C)(C)NC(=O)[C@@H](N)Cc2ccc(O)cc2)[C@@H](C)O)[C@@H](C)O)[C@@H](C)CC)C(=O)N[C@@H](C)C(=O)N[C@@H](Cc2ccccc2)C(=O)N[C@@H](C(C)C)C(=O)N1)C(=O)N[C@@H](C)C(=O)NCC(=O)NCC(=O)N1CCC[C@H]1C(=O)N[C@@H](CO)C(=O)N[C@@H](CO)C(=O)NCC(=O)N[C@@H](C)C(=O)N1CCC[C@H]1C(=O)N1CCC[C@H]1C(=O)N1CCC[C@H]1C(=O)N[C@@H](CO)C(N)=O [WX-003] (H-Y[Aib]EGTFTSDYSI[Aib]LDKK([AEEA-AEEA-γGlu-γGlu-C18 diacid])AQKAFVEWLIAGGPSSGAPPPS-NH2; lactam 20-24)
GLP-1R; [1]
  EC50: 0.09 nM
GIPR; [2]
  EC50: 0.3 nM
